Results as given in patent US20180296503A1 (priority 2014, published 2018).

Tests used:
rd10^+/+ mice [1] = experiment: Scotopic, photopic and low background photopic electroretinograms (ERGs) in rd10+/+ mice given drug in drinking water; type: in vivo; conditions: for mean peak scotopic ERG b-wave amplitude compared with controls: vs controls
Method: Scotopic and photopic electroretinograms (ERGs) were recorded at P35. Scotopic, photopic and low background photopic ERGs were recorded at P50.

[2] = humans; oral dose of 600 mg; cited from earlier work
[3] = oral formulations; cited from earlier work
rd10^+/+ mice [4] = experiment: Cone density in PNA-stained retinal flat mounts of rd10+/+ mice at P50; type: in vivo; conditions: for cone cell density compared to NAC-treated mice: P50, four quadrants
[5] = target: glutamate cysteine ligase (GCL, EC 6.3.2.2); conditions: nonallosteric competitive inhibition of GCL; cited from earlier work
[6] = same oral dose or substantially lower dose than NAC, rd10+/+ mice

For `CC(=O)N[C@@H](CS)C(=O)O` [NAC, N-acetyl-L-cysteine], the “mean peak scotopic ERG b-wave amplitude compared with controls” value (rd10^+/+ mice [1]; P50, 20 mg/ml NAC) is given as “sustained higher amplitudes”, the “time after administration at which no NAC is detectable” value [2] is given as 10 to 12 h and the systemic bioavailability [3] is given as less than 10%.
In the case of `CC(=O)N[C@@H](CS)C(N)=O`, the “protecting cone cell survival (FIGS. 2A to 2M)” value (rd10^+/+ mice [4]; 7 mg/ml NACA vs 7 mg/ml NAC) is reported as “better effects”, the “protecting cone cell survival (FIGS. 4A to 4M)” value (rd10^+/+ mice [4]; 7 mg/ml NACA vs 20 mg/ml NAC) is reported as “better effect” and the “cone cell density compared to NAC-treated mice” value (rd10^+/+ mice [4]; 7 mg/ml NACA vs 7 mg/ml NAC, p<0.0001 by ANOVA with Dunnett's correction) is reported as “significantly greater in 3 of 4 quadrants”. The “cone cell density compared to NAC-treated mice” value (rd10^+/+ mice [4]; 7 mg/ml NACA vs 20 mg/ml NAC) was “significantly greater in 2 of 4 quadrants”, the “preservation of cone survival compared with NAC” value (rd10^+/+ mice [4]; [6]) was “significantly greater preservation” and the “protecting retinal function (FIGS. 1A to 1E)” value (rd10^+/+ mice [1]; 7 mg/ml NACA vs 7 mg/ml NAC) was “better effects”. For the same molecule, the “protecting retinal function (FIGS. 3A to 3E)” value (rd10^+/+ mice [1]; 7 mg/ml NACA vs 20 mg/ml NAC) was “better effects”, the “mean peak scotopic ERG b-wave amplitude compared with 20 mg/ml NAC” value (rd10^+/+ mice [1]; P35, 7 mg/ml NACA vs 20 mg/ml NAC) was “similar” and the “mean peak photopic b-wave amplitude, higher than in NAC-treated mice” value (rd10^+/+ mice [1]; P35, 7 mg/ml NACA vs 20 mg/ml NAC, p=0.024) was 41%. For the same molecule, the “mean scotopic b-wave amplitudes compared with NAC-treated mice” value (rd10^+/+ mice [1]; P50, 7 mg/ml NACA vs 20 mg/ml NAC, at 10 of 11 stimulus intensities) was “significantly greater”, the “mean photopic ERG b-wave amplitude, higher than in NAC-treated mice” value (rd10^+/+ mice [1]; P50, 7 mg/ml NACA vs 20 mg/ml NAC, at all 3 stimulus intensities, p=0.001) was 50% and the “mean peak scotopic ERG b-wave amplitude compared with controls” value (rd10^+/+ mice [1]; P50, 7 mg/ml NACA) was “sustained higher amplitudes”. The “preservation of cone cell function compared with NAC” value (rd10^+/+ mice [1]; [6]) was “significantly greater preservation”.
In the case of `N[C@@H](CCC(=O)N[C@@H](CS)C(=O)NCC(=O)O)C(=O)O` [GSH, c-L-glutamyl-L-cysteinyl-glycine], the Ki [5] is given as 2300 µM.
